26 compounds from PubChem BioAssay AID1259408 (Genetic Toxicology Data Bank (GENE-TOX), 2018) can be followed below.

Activity calls are given as the source filed them. The rule behind the calls is not given here.

In this series the test system is GENE-TOX genotoxicity assays, various organisms and cells. Nature of the series: GENE-TOX mutagenicity studies. As to conditions: for call: Assay Type: In vivo carcinogenicity studies.
Where [1] appears, read: Species/Cell Type: Human diploid fibroblasts, Assay Type: Unscheduled DNA synthesis (UDS) in vitro, DNA effects, Assay Code: UDH-, Evaluation Type: Evaluation A (Pre-1980).
Where [2] appears, read: Species/Cell Type: Human, Assay Type: Sister-chromatid exchange (SCE) in vitro, Assay Code: SC1T, Evaluation Type: Evaluation B (Post-1980).
[3] abbreviates: Species/Cell Type: Nonhuman, Assay Code: CCGT, Evaluation Type: Evaluation A (Pre-1980).
[4] abbreviates: Species/Cell Type: Nonhuman, Assay Type: Sister-chromatid exchange (SCE) in vitro, Assay Code: SC2+D, Dose Response: With dose response, Evaluation Type: Evaluation B (Post-1980).
Where [5] appears, read: Species/Cell Type: Salmonella typhimurium (one or more of the five standard strains: TA98, TA100, TA1535, TA1537, and TA1538), Assay Type: Histidine reverse gene mutation, Ames assay, Assay Code: SAL+, Evaluation Type: Evaluation A (Pre-1980).
Where [6] appears, read: Species/Cell Type: Drosophila melanogaster, Assay Type: Sex-linked recessive lethal gene mutation, Assay Code: SRL+, Evaluation Type: Evaluation A (Pre-1980).
The mark [7] stands for this setting: Species/Cell Type: Nonhuman, Assay Code: CCG+, Evaluation Type: Evaluation A (Pre-1980).
[8] abbreviates: Species/Cell Type: Saccharomyces cerevisiae, Assay Type: Reverse gene mutation, Assay Code: YERT, Evaluation Type: Evaluation A (Pre-1980).
Setting [9] is: Species/Cell Type: Human lymphocytes, Assay Type: Sister-chromatid exchange (SCE) in vitro, Assay Code: SCL+D, Dose Response: With dose response, Evaluation Type: Evaluation B (Post-1980).
Where [10] appears, read: Species/Cell Type: Human, Assay Type: Sister-chromatid exchange (SCE) in vitro, Assay Code: SC1+D, Dose Response: With dose response, Evaluation Type: Evaluation B (Post-1980).
[11] abbreviates: Species/Cell Type: Saccharomyces cerevisiae, Assay Type: Mitotic recombination or gene conversion, Assay Code: YEC+, Evaluation Type: Evaluation A (Pre-1980).

As to `O=C1CN(/N=C/c2ccc([N+](=O)[O-])o2)C(=O)N1`, the mutagenic call runs as follows: (Species/Cell Type: Escherichia coli WP2, Assay Type: Tryptophan reverse gene mutation, Assay Code: WP2+, Evaluation Type: Evaluation A (Pre-1980)) “active; positive”; (Species/Cell Type: Escherichia coli WP2 UVRA, Assay Type: Tryptophan reverse gene mutation, Assay Code: WPU+D, Dose Response: With dose response, Evaluation Type: Evaluation A (Pre-1980)) “active; positive”; under setting [1], “inactive; negative”; under setting [2], “no conclusion”; (Species/Cell Type: Human, Sex: Male, Assay Type: Sperm morphology, Assay Code: SPHT, Evaluation Type: Evaluation A (Pre-1980)) “no conclusion”; (Species/Cell Type: Mammalian polychromatic erythrocytes, Assay Type: Micronucleus test, chromosome aberrations, Assay Code: MNT+, Evaluation Type: Evaluation A (Pre-1980)) “active; positive”. Besides, the mutagenic call is, setting by setting: (Species/Cell Type: Mouse, Sex: Male, Assay Type: Sperm morphology, Assay Code: SPI-, Evaluation Type: Evaluation A (Pre-1980)) “inactive; negative”; under setting [4], “active; positive”; (Species/Cell Type: Nonhuman, Assay Type: Sister-chromatid exchange (SCE) in vivo, Assay Code: SC3+, Evaluation Type: Evaluation B (Post-1980)) “active; positive”; (Species/Cell Type: Rodents, Sex: Male, Assay Type: Dominant lethal test, Assay Code: DLT-, Evaluation Type: Evaluation A (Pre-1980)) “inactive; negative”; (Species/Cell Type: Saccharomyces cerevisiae, Assay Type: Forward and reverse gene mutation, mitotic recombination and gene conversion, host-mediated assay, Assay Code: HME+, Evaluation Type: Evaluation A (Pre-1980)) “active; positive”; (Species/Cell Type: Saccharomyces cerevisiae, Assay Type: Mitotic recombination or gene conversion, Assay Code: YEC+*, Activation: With metabolic activation, Evaluation Type: Evaluation A (Pre-1980)) “active; positive”. The mutagenic call runs as follows: under setting [5], “active; positive”; (Species/Cell Type: Salmonella typhimurium and Saccharomyces cerevisiae, Assay Type: Forward and reverse gene mutation, mitotic recombination and gene conversion, DNA effects, body fluid assay, Assay Code: BFG+, Evaluation Type: Evaluation A (Pre-1980)) “active; positive”. Also, the call under setting [3] was “no conclusion”.
In the case of `O=C1C=C(N2CC2)C(=O)C2=C1CCCC2`, under setting [6], the mutagenic call is “active; positive”.
`CCCCOCC1CO1` (configuration not stated): the mutagenic call (Species/Cell Type: Mammalian polychromatic erythrocytes, Assay Type: Micronucleus test, chromosome aberrations, Assay Code: MNT+, Evaluation Type: Evaluation B (Post-1980)) was “active; positive”.
As to `Nc1cc2c(cn1)[nH]c1ccccc12`, the mutagenic call runs as follows: (Species/Cell Type: Human, Assay Type: Sister-chromatid exchange (SCE) in vitro, Assay Code: SC1+, Evaluation Type: Evaluation B (Post-1980)) “active; positive”; under setting [4], “active; positive”.
For `CC(=O)c1ccccc1`, the mutagenic call was “inactive; negative” (Species/Cell Type: Escherichia coli polA (W3110 vs P3478), Assay Type: Rec-assay, DNA effects (bacterial DNA repair), Assay Code: RE2-, Evaluation Type: Evaluation A (Pre-1980)) and “inactive; negative” (Species/Cell Type: Escherichia coli polA (W3119 vs P3478), Assay Type: Rec-assay, DNA effects (bacterial DNA repair), Assay Code: RE1-, Evaluation Type: Evaluation A (Pre-1980)).
`Cc1ccc2c(c1N)C(=O)c1ccccc1C2=O`: the call under setting [7] was “active; positive”.
In the case of `CN=C=O`, the mutagenic call (Species/Cell Type: Mammalian polychromatic erythrocytes, Assay Type: Micronucleus test, chromosome aberrations, Assay Code: MNT+U, Dose Response: Unconfirmed positive response, Evaluation Type: Evaluation B (Post-1980)) is “active; positive”.
Take `CCCCCN(CCCCC)N=O`: the mutagenic call is “active; positive” (Species/Cell Type: Chinese hamster lung (V79) cells, Assay Type: Forward gene mutation at the HPRT or ouabain locus, Assay Code: V79+, Evaluation Type: Evaluation A (Pre-1980)); “active; positive” (Species/Cell Type: Salmonella typhimurium (one or more of the five standard strains: TA98, TA100, TA1535, TA1537, and TA1538), Assay Type: Histidine reverse gene mutation, Ames assay, Assay Code: SAL+*, Activation: With metabolic activation, Evaluation Type: Evaluation A (Pre-1980)).
Consider `CCN(CC)Cc1cc(Br)ccc1OCC(=O)NN`, for which, under setting [8], the mutagenic call is “no conclusion”.
Consider `O=P([O-])([O-])[O-].O=P([O-])([O-])[O-].[Pb+2].[Pb+2].[Pb+2]`, for which the call under setting [7] was “active; positive”.
Turning to `CN1C(=O)CN=C(c2ccccc2)c2cc(Cl)ccc21`, the mutagenic call reads like this: (Species/Cell Type: Human lymphocytes, Assay Type: Sister-chromatid exchange (SCE) in vivo, Assay Code: SCY+, Evaluation Type: Evaluation B (Post-1980)) “active; positive”; under setting [2], “no conclusion”; (Species/Cell Type: Mammalian polychromatic erythrocytes, Assay Type: Micronucleus test, chromosome aberrations, Assay Code: MNTT, Evaluation Type: Evaluation A (Pre-1980)) “no conclusion”; (Species/Cell Type: Salmonella typhimurium (one or more of the five standard strains: TA98, TA100, TA1535, TA1537, and TA1538), Assay Type: Histidine reverse gene mutation, Ames assay, Assay Code: SALT, Evaluation Type: Evaluation A (Pre-1980)) “no conclusion”; (Species/Cell Type: Salmonella typhimurium, Assay Type: Forward and reverse gene mutation, body fluid assay, Assay Code: BFU+, Evaluation Type: Evaluation A (Pre-1980)) “active; positive”.
Take `Cn1cccc1CO`: the mutagenic call is, setting by setting: under setting [9], “active; positive”; under setting [10], “active; positive”.
As for `O[C@@H]1[C@@H](O)[C@@H](O)c2c(cc3ccc4cccc5ccc2c3c45)[C@H]1O`, the mutagenic call (Species/Cell Type: Chinese hamster lung (V79) cells, Assay Type: Forward gene mutation at the HPRT or ouabain locus, Assay Code: V79-*, Activation: With metabolic activation, Evaluation Type: Evaluation A (Pre-1980)) is “inactive; negative”.
On to `O=[N+]([O-])c1cccc2cc[nH]c12`, for which the mutagenic call under setting [5] is “active; positive”.
As to `CC(=O)ON(C(C)=O)c1ccc(/C=C/c2ccccc2)cc1`, the mutagenic call under setting [11] was “active; positive”; the mutagenic call (Species/Cell Type: Saccharomyces cerevisiae, Assay Type: Mitotic recombination or gene conversion, Assay Code: YEH+, Evaluation Type: Evaluation A (Pre-1980)) is “active; positive”; the mutagenic call (Species/Cell Type: Saccharomyces cerevisiae, Assay Type: Reverse gene mutation, Assay Code: YER+, Evaluation Type: Evaluation A (Pre-1980)) is “active; positive”.
Regarding `c1ccc2c(c1)[nH]c1cnccc12`, the mutagenic call is “active; positive” under setting [9]; “no conclusion” (Species/Cell Type: Human lymphocytes, Assay Type: Sister-chromatid exchange (SCE) in vitro, Assay Code: SCLT, Evaluation Type: Evaluation B (Post-1980)); “active; positive” under setting [10]; “no conclusion” under setting [2].
With `CN=C(N)N`, the mutagenic call under setting [1] was “inactive; negative”.
Take `O=NN(CCCl)C(=O)NC(NC(=O)N(CCCl)N=O)(c1ccccc1)c1ccccc1`: the mutagenic call under setting [6] is “active; positive”.
In the case of `O=C(COc1ccc(Br)cc1CN1CCOCC1)N/N=C/c1ccccc1O`, the mutagenic call under setting [8] is “no conclusion”.
In the case of `Nc1ncc2[nH]cnc2n1`, the mutagenic call runs as follows: (Species/Cell Type: Drosophila melanogaster, Assay Type: Sex-linked recessive lethal gene mutation, Assay Code: SRLT, Evaluation Type: Evaluation A (Pre-1980)) “no conclusion”; (Species/Cell Type: Escherichia coli WP2 UVRA, Assay Type: Tryptophan reverse gene mutation, Assay Code: WPU+, Evaluation Type: Evaluation A (Pre-1980)) “active; positive”; (Species/Cell Type: Mouse lymphoma (L5178Y) cells, Assay Type: Forward gene mutation at the thymidine kinase (TK) locus, chromosome aberrations, Assay Code: L51+, Evaluation Type: Evaluation A (Pre-1980)) “active; positive”; (Species/Cell Type: Mouse, Sex: Female, Assay Type: Spot test, gene mutation, Assay Code: MST+, Evaluation Type: Evaluation A (Pre-1980)) “active; positive”; (Species/Cell Type: Neurospora crassa, Assay Type: Forward gene mutation, Assay Code: NEF+, Evaluation Type: Evaluation A (Pre-1980)) “active; positive”; (Species/Cell Type: Saccharomyces cerevisiae, Assay Type: Forward gene mutation, Assay Code: YEF+, Evaluation Type: Evaluation A (Pre-1980)) “active; positive”. Further, the call under setting [3] is given as “no conclusion”.
For the compound `Cc1ccc2oc(=O)ccc2c1`, the mutagenic call runs as follows: (Species/Cell Type: Allium cepa, Assay Type: Chromosome aberrations, Assay Code: ALC+D, Dose Response: With dose response, Evaluation Type: Evaluation A (Pre-1980)) “active; positive”; (Species/Cell Type: Nonhuman, Assay Type: Chromosome aberrations in vitro, Assay Code: CY&+, Evaluation Type: Evaluation A (Pre-1980)) “active; positive”.
In the case of `C#CC(OC(=O)NC1CCCCC1)(c1ccccc1)c1ccc(C)c(C)c1` (configuration not stated), the mutagenic call reads like this: (Species/Cell Type: Human diploid fibroblasts, Assay Type: Unscheduled DNA synthesis (UDS) in vitro, DNA effects, Assay Code: UDH+, Evaluation Type: Evaluation A (Pre-1980)) “active; positive”; under setting [5], “active; positive”.
In the case of `Nc1nc(-c2cc([N+](=O)[O-])cs2)cs1`, under setting [5], the mutagenic call is “active; positive”.
With `O=C1Nc2ccc([N+](=O)[O-])cc2C1=O`, the mutagenic call under setting [5] is “active; positive”.
On to `CCOC(=O)c1ccc(N=NN(C)C)cc1`, for which the mutagenic call is “active; positive” under setting [6] and “active; positive” under setting [11].
On to `O.O.O.[Co]`, for which, for the setting “Species/Cell Type: Bacillus subtilis (H17 vs M45), Assay Type: Rec-assay, spot test, DNA effects (bacterial DNA repair), Assay Code: REW+, Evaluation Type: Evaluation A (Pre-1980)”, the mutagenic call is “active; positive”.
